According to patent publication US20130253020A1, “Treatment of Degenerative Disc Diseases” (priority 2012, published 2013):

Legend:
[1] = tested on: advanced glycation end-products (AGEs) in nucleus pulposus (NP) tissues; experiment: AGEs in NP disc tissue: autofluorescence of acid hydrolysates divided by collagen content, after thiazolium salt incubation; design: species or system human; details: 4 days
Description: Eleven lumbar spines (T12/L1-L5/S1) were collected fresh frozen cadavers consisting of 5 males and 6 females with a mean age of 82.5 years ±10.2. The cross-sections of the lumbar disc were visually categorized into Thompson grades 1 to 5 and corroborated with fluoroscopic imaging. The grade 1 (“Control”) and grade 5 (“Degenerate”) discs were used (total 27 discs). The discs were separated into annulus fibrosus (AF) and nucleus pulposus (NP) tissues. The Control discs were tested mechanically and then divided to undergo 0, 2, 4, 8, and 10 days of ribosylation in 0.6M ribose at 37° C. The treated Control discs, along with the degenerated discs were then tested mechanically using a dynamic microindentation device in 0.15M PBS at 20° C. using the Biopent 1000 reference point indentation system (Active Life Scientific, CA). A 1.47 mm diameter cylindrical probe cyclically indented the tissue to a depth of 300 μm at 1 Hz to generate a force displacement curve. Three distinct sites per AF/NP were measured and averaged between the sites. The resulting force-deformation curves, accounting for the probe geometry, were used to compute elastic modulus and tan δ.
Following mechanical measurements, the O-day and 4-day treated Control NP tissues were incubated in 0.15M of a thiazolium salt known to cleave AGEs products (Oturai P S, Christensen M, Rolin B, Pedersen K E, Mortensen S B, Boel E. Effects of advanced glycation end-product inhibition and cross-link breakage in diabetic rats. Metab Clin Exp 2000:49:996-1000.) for 4 days. […] Following the second incubation, all tissues were mechanically assessed again, and then subjected to acid hydrolysis by 6N hydrochloric acid (16 hours, 110C). The collagen crosslinking by AGEs, a sugar-derived posttranslational modification of amino acids, was quantified by measuring the autofluorescence of the acid hydrolysates at […] and divided by collagen content (Monnier V M, Kohn R R, Cerami A. Accelerated age-related browning of human collagen in diabetes mellitus. Proc Natl Acad Sci USA 1984; 81:583-587). […]

[2] = tested on: nucleus pulposus (NP) tissues; experiment: Dynamic microindentation of NP tissue (indentation modulus, tan δ) after thiazolium salt incubation; design: species or system human; details: ribosylated or degenerated, thiazolium salt solution 4 days, FIG. 2
Description: Eleven lumbar spines (T12/L1-L5/S1) were collected fresh frozen cadavers consisting of 5 males and 6 females with a mean age of 82.5 years ±10.2. The cross-sections of the lumbar disc were visually categorized into Thompson grades 1 to 5 and corroborated with fluoroscopic imaging. The grade 1 (“Control”) and grade 5 (“Degenerate”) discs were used (total 27 discs). The discs were separated into annulus fibrosus (AF) and nucleus pulposus (NP) tissues. The Control discs were tested mechanically and then divided to undergo 0, 2, 4, 8, and 10 days of ribosylation in 0.6M ribose at 37° C. […] Three distinct sites per AF/NP were measured and averaged between the sites. […]
Following mechanical measurements, the O-day and 4-day treated Control NP tissues were incubated in 0.15M of a thiazolium salt known to cleave AGEs products (Oturai P S, Christensen M, Rolin B, Pedersen K E, Mortensen S B, Boel E. Effects of advanced glycation end-product inhibition and cross-link breakage in diabetic rats. Metab Clin Exp 2000:49:996-1000.) for 4 days. […] Following the second incubation, all tissues were mechanically assessed again, and then subjected to acid hydrolysis by 6N hydrochloric acid (16 hours, 110C). […]

primary spine disc cells = experiment: mRNA expression of inflammatory cytokines and r-AGEs in primary spine disc cells exposed to AGEs; type: cell-based, human and bovine; details: FIG. 3
Excerpt: Primary spine disc cells were isolated from both human and bovine spine discs. The tissues were digested using a cocktail containing collagenase P, trypsin, and other enzymes to release the primary cells embedded within the tissues (Neidlinger-Wilke C, Liedert A, Wuertz K, Buser Z, Rinkler C, Käfer W, et al. Mechanical stimulation alters pleiotrophin and aggrecan expression by human intervertebral disc cells and influences their capacity to stimulate endothelial migration. Spine 2009; 34:663-669). These cells were then conditioned and allowed to expand for 3 passages. After conditioning in normal cell culture media, the cells were exposed to several conditions: Control, bovine serum albumin, and AGEs. The treatments were dissolved directly in the cell culture media and then the cells were subjected to these conditions for 24 hours. Messenger ribose nucleic acids (mRNA) were then extracted from these cells and amplified into respective complimentary deoxyribose nucleic acids (cDNA). The cDNA sequences were tested for the normalized expression (normalized to the housekeeping gene, GAP-DH) of Interleukin (IL)-4, IL-6 (both of which initiate the inflammatory pain response), and the Receptor-for Advanced Glycation End-products (r-AGEs). The normalized expressions compared to the controls were computed by the delta-delta CT method.

O=C(C[n+]1ccsc1)c1ccccc1.[Br-] [PTB, N-phenacyl thiazolium bromide]
AGEs in NP disc tissue ([1]; Grade 1 (Control) NP tissue, 0.15M PTB solution): significant reductions
AGEs in NP disc tissue ([1]; Grade 5 (Degenerate) NP tissue, 0.15M PTB solution): significant reductions
AGEs in NP disc tissue ([1]; Grade I+Ribosylation NP tissue (4-day ribosylation), 0.15M thiazolium salt): significant reductions
mechanical properties of NP tissue (indentation modulus, tan δ) [2]: rescuing effect
cellular inflammatory response, marked by the cytokines IL-4 and IL-6 (primary spine disc cells; concurrent administration with AGEs in cell culture media, 24 hours): suppresses this response
Interleukin-1 expression (primary spine disc cells; primary spinal disc cells): decrease
Interleukin-6 expression (primary spine disc cells; primary spinal disc cells): decrease
expression of the Receptor-for-Advanced Glycation End-Products (primary spine disc cells; primary spinal disc cells): reduction
